Results taken from patent US8378107B2, “Heteroaryl antagonists of prostaglandin D2 receptors” (Panmira Pharmaceuticals, LLC, priority 2008, dated 2013).
One block for each molecule: values may come before it.

Target: T1, human DP2 receptor (Homo sapiens, UniProt Q9Y5Y4)
T1 construct: expressed in transfected cells; membrane preparation
T1 sequence (Q9Y5Y4 1-395): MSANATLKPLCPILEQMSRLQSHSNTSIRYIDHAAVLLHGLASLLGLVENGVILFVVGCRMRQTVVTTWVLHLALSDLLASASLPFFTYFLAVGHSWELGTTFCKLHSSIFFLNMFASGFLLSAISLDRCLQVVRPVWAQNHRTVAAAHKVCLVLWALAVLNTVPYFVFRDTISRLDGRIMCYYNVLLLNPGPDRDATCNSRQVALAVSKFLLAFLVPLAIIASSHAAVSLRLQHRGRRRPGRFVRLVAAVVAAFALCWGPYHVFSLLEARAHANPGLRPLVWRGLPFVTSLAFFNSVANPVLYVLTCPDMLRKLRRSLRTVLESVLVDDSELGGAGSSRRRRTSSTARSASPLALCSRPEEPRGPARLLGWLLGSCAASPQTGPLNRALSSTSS
Assay: DP2/CRTH2 radioligand binding assay using [3H]PGD2
Settings: membranes of HEK293 cells expressing recombinant human DP2, 1 nM [3H]PGD2; read-out: hDP2
Procedure: The ability of a compound to bind to the human DP2 receptor is assessed via a radioligand binding assay using [^3H]PGD2. HEK293 cells stably expressing recombinant human DP2 are resuspended in 10 mM Hepes, 7.4 containing 1 mM DTT, lysed and centrifuged at 75,000×g to pellet the membranes. The membranes are resuspended in 10 mM Hepes, 7.4 containing 1 mM DTT and 10% glycerol to approximately 5 mg protein/ml. Membranes (2-10 μg protein/well) are incubated in 96-well plates with 1 nM [^3H]PGD2 and test compound in Assay Buffer (50 mM Hepes, 10 mM MnCl2, 1 mM EDTA, plus or minus 0.2% human serum albumin, pH 7.4) for 60 minutes at room temperature. The reactions are terminated by rapid filtration through Whatman GF/C glass fibre filter plates. The filter plates were pre-soaked in 0.33% polyethylenimine for 30 minutes at room temperature then washed in Wash Buffer (50 mM Hepes, 0.5 M NaCl pH 7.4) prior to harvesting. After harvesting, the filter plates are washed 3 times with 1 ml cold Wash Buffer then dried. Scintillant is then added to the plates and the radioactivity retained on the filters is determined on a Packard TopCount (Perkin Elmer). Specific binding is determined as total radioactive binding minus non-specific binding in the presence of 10 μM PGD2. IC50s were determined using GraphPad prism analysis of drug titration curves.

Compound: O=C(O)CCn1c2c(c3ccccc31)C[C@H](NS(=O)(=O)c1ccc(F)cc1)CC2 [Ramatroban, reference compound]
- IC50: 300 to 1000 nM

Compound: CCN(Cc1cc2ccccc2nc1-c1cc(CC(=O)O)ccc1OC)C(C)=O [Compound 2-2, (3-{3-[(Acetyl-ethyl-amino)-methyl]-quinolin-2-yl}-4-methoxy-phenyl)-acetic acid]
- IC50: > 1000 nM

Compound: CCN(Cc1cc2ccccc2nc1-c1cc(CC(=O)O)ccc1OC)C(=O)COC [Compound 2-3, [3-(3-{[Ethyl-(2-methoxy-acetyl)-amino]-methyl}-quinolin-2-yl)-4-methoxy-phenyl]-acetic acid]
- IC50: > 1000 nM

Compound: CCN(Cc1cc2ccccc2nc1-c1cc(CC(=O)O)ccc1OC)C(=O)C1CC1 [Compound 2-1, (3-{3-[(Cyclopropanecarbonyl-ethyl-amino)-methyl]-quinolin-2-yl}-4-methoxy-phenyl)-acetic acid]
- IC50: 300 to 1000 nM

Compound: CCN(Cc1cc(C)cnc1-c1cc(CC(=O)O)ccc1OC)C(=O)C1CC1 [Compound 1-2, (3-{3-[(Cyclopropanecarbonyl-ethyl-amino)-methyl]-5-methyl-pyridin-2-yl}-4-methoxy-phenyl)-acetic acid]
- IC50: 300 to 1000 nM

Compound: COc1ccc(CC(=O)O)cc1-c1ncccc1CNC(=O)OCc1ccccc1 [Compound 1-1, {3-[3-(Benzyloxycarbonylamino-methyl)-pyridin-2-yl]-4-methoxy-phenyl}-acetic acid]
- IC50: > 1000 nM

Now from value to molecule:

- IC50: < 300 nM
Compound: CCN(Cc1nc2ccccc2cc1-c1cc(CC(=O)O)ccc1OC)C(=O)COC [Compound 2-6, [3-(2-{[Ethyl-(2-methoxy-acetyl)-amino]-methyl}-quinolin-3-yl)-4-methoxy-phenyl]-acetic acid]

- IC50: < 300 nM
Compound: CCN(Cc1cc(C)cnc1-c1cc(CC(=O)O)ccc1OC)C(=O)CCc1ccccc1 [Compound 1-3, [3-(3-{[Ethyl-(3-phenyl-propionyl)-amino]-methyl}-5-methyl-pyridin-2-yl)-4-methoxy-phenyl]-acetic acid]

- IC50: < 300 nM
Compound: CCN(Cc1cc(C)cnc1-c1cc(CC(=O)O)ccc1OC)C(=O)NCc1ccccc1 [Compound 1-4, {3-[3-(3-Benzyl-1-ethyl-ureidomethyl)-5-methyl-pyridin-2-yl]-4-methoxy-phenyl}-acetic acid]

- IC50: < 300 nM
Compound: COc1ccc(CC(=O)O)cc1-c1cc2ccccc2nc1CN(Cc1ccccc1)C(=O)C1CC1 [Compound 2-8, (3-{2-[(Benzyl-cyclopropanecarbonyl-amino)-methyl]-quinolin-3-yl}-4-methoxy-phenyl)-acetic acid]

- IC50: < 300 nM
Compound: CCC(=O)N(CC)Cc1nc2ccccc2cc1-c1cc(CC(=O)O)ccc1OC [Compound 2-5, (3-{2-[(Ethyl-propionyl-amino)-methyl]-quinolin-3-yl}-4-methoxy-phenyl)-acetic acid]

- IC50: < 300 nM
Compound: CCN(Cc1nc2ccccc2cc1-c1cc(CC(=O)O)ccc1OC)C(=O)C1CC1 [Compound 2-4, (3-{2-[(Cyclopropanecarbonyl-ethyl-amino)-methyl]-quinolin-3-yl}-4-methoxy-phenyl)-acetic acid]

- IC50: < 300 nM
Compound: COc1ccc(CC(=O)O)cc1-c1cc2ccccc2nc1CN(Cc1ccccc1)C(C)=O [Compound 2-7, (3-{2-[(Acetyl-benzyl-amino)-methyl]-quinolin-3-yl}-4-methoxy-phenyl)-acetic acid]
